Source: PMC11123961, “Design, Synthesis, and Biological Evaluation of the Quorum-Sensing Inhibitors of Pseudomonas aeruginosa PAO1” (Molecules, 2024)

Legend:
[1] = Pharmacokinetics in male CD1 mice; type: in vivo
Protocol: Beijing Pharmaron Inc. carried out pharmacokinetic studies relating to compound Y-31 in mice. All of the animals were kept in a pathogen-free barrier animal facility, and the company’s Animal Care and Use Committee approved the experiments. On the day of administration, the sample solution was made into a 5, 20 mg/kg solution. Following a single dosage of compound Y-31 either intravenously (5 mg/kg, IV) or orally (20 mg/kg, PO) at 0.25, 0.5, 1, 2, 4, 6, 8, and 24 h post-administration, blood samples were taken from CD1 male mice (n = 3). After that, the plasma was centrifuged for […] at 4000 g and 4 °C to yield. The plasma was diluted 3 times with water. For quantitative analysis, a measurement of 2 µL of diluted supernatant was put into the LC/MS/MS apparatus. […] Phoenix WinNonlin 8.0 software was applied to calculate the pharmacokinetic parameters.

[2] = test system: P. aeruginosa PAO1 elastase; assay: Elastase quantification (EnzCheck Elastase Assay Kit); type: cell-based, Pseudomonas aeruginosa
Protocol: The method previously described was used to perform the elastase quantification experiment. In LB medium, P. aeruginosa PAO1 was cultivated until the logarithmic growth phase at 37 °C and 150 rpm. […] Elastase activity was detected using the EnzCheckTM Elastase Assay Kit after filtration with a 0.22 μm filter membrane.

[3] = test system: P. aeruginosa PAO1 rhamnolipid; assay: Rhamnolipid quantification assay (orcinol); type: cell-based, Pseudomonas aeruginosa
Protocol: The rhamnolipid quantification assay was as follows: sulfuric acid–orcinol concentrated solution was used to examine the compound’s impact on P. aeruginosa PAO1 rhamnolipid. Initially, 50 μg/mL, 100 μg/mL, 200 μg/mL, and 400 μg/mL of a prepared solution of rhamnose standard at a concentration of 1 mg/mL in tilled water were diluted. Subsequently, 900 μL of 0.19% orcinol-concentrated sulfuric acid solution (0.19% orcinol (w/v), 50% H2SO4) was mixed with 100 μL of each concentration of rhamnose standard solution, and the mixture was incubated for 30 min at 80 °C in a water bath. After cooling to 25 °C, the OD value at 421 nm was measured. A standard curve of rhamnose concentration–absorbance values was established using Excel software 2019.
After cultivating P. aeruginosa PAO1 in LB medium for a logarithmic growth phase at 37 °C and 150 rpm, the bacterial culture was diluted with PPGAS solution (20 mM KCl, 20 mM NH4Cl, 0.5% glucose, 1.6 mM MgSO4, 120 mM Tris-HCl, and 1.0% peptone) to OD600 = 0.05. […] After centrifuging the bacterial cultures for 10 min at 1665 g, the supernatants were gathered. After extracting the supernatants twice using ethyl acetate, the organic layers were gathered and allowed to dry out at room temperature overnight. After resuspending the solid product in deionized water, 100 μL was added to 900 μL of 0.19% orcinol in 50% H2SO4, and the mixture was incubated for 30 min at 80 °C in a water bath. After cooling to 25 °C, the OD value at 421 nm was measured. The rhamnolipid content in the sample was determined according to a rhamnose standard curve (rhamnolipid content = 2.5 × rhamnose content).

[4] = test system: wildtype Caenorhabditis elegans N2 infected with P. aeruginosa PAO1; assay: C. elegans survival assay; type: in vivo
Excerpt: 3.2.7. C. elegans Survival Assay
The negative control was the PGS agar plate coated with E. Coli OP50. Next, 50 wildtype C. elegans N2 strain-synchronized nematodes (L4 stage) were chosen and placed onto the plates. […] When the nematodes in the study were immobile, they were deemed dead. The number of nematodes that survived was tabulated to generate a survival curve.

[5] = test system: P. aeruginosa PAO1 pyocyanin; assay: Pyocyanin quantification assay; type: cell-based, Pseudomonas aeruginosa
Protocol: The method used to perform the pyocyanin quantification assay was previously reported. In short, P. aeruginosa PAO1 was cultivated in LB medium to reach the logarithmic growth phase at 37 °C and 150 rpm. Following this, the medium (2% peptone, 1% K2SO4, 0.3% MgCl2) was diluted 10 times. A 5 mL bacterial culture containing and excluding the compound (162.5 μM, 81.25 μM, and 20 μM) was incubated for 16 h at 37 °C at 150 rpm. The culture was centrifuged at 1665 g for 10 min in order to extract pyocyanin. The supernatant was then collected and extracted using 3 mL of chloroform. The upper aqueous phase was then collected via centrifugation at 1665 g for 10 min after 1 mL of 0.2 M HCl was combined with the chloroform layer. Absorbance was measured at 520 nm. The pyocyanin inhibition rate was calculated as follows = (OD520 blank − OD520 sample)/OD520 blank × 100%.

[6] = mouse, plasma, IV, 5 mg/kg, male CD1 mice
[7] = mouse, plasma, PO, 20 mg/kg, male CD1 mice

O=C(CCCOc1ccc(I)cc1)NN1CCCOC1=O [Y-31]
AUC [1, 6]: 935 ng·h/mL | Cmax [1, 6]: 3290 ng/mL | Tmax [1, 6]: 4.8 min | half-life [1, 6]: 7.8 min | bioavailability ([1]; mouse, plasma, PO, 20 mg/kg vs IV 5 mg/kg, male CD1 mice, read-out: F (bioavailability)): 30.4% | AUC [1, 7]: 1100 ng·h/mL | Cmax [1, 7]: 1280 ng/mL | Tmax [1, 7]: 15 min | half-life [1, 7]: 311 min | Clinical symptoms during the pharmacokinetic trial ([1]; single dose 5 mg/kg IV or 20 mg/kg PO, CD1 male mice): no unusual clinical symptoms were noticed | Inhibition rate of elastase ([2]; 162.5 μM): 22.7% | inhibition at 40 µM ([2]; Pseudomonas aeruginosa, PAO1, read-out: Inhibition rate of elastase, 40 μM): 11.3% | inhibition at 81.5 µM ([2]; Pseudomonas aeruginosa, PAO1, read-out: Inhibition rate of elastase, 81.5 μM): 20% | inhibition at 162.5 µM ([2]; Pseudomonas aeruginosa, PAO1, read-out: Inhibition rate of elastase, 162.5 μM): 22.7% | Inhibition rate of rhamnolipid ([3]; 162.5 μM): 6.1% | inhibition at 40 µM ([3]; Pseudomonas aeruginosa, PAO1, read-out: Inhibition rate of rhamnolipid, 40 μM): 0.4% | inhibition at 81.5 µM ([3]; Pseudomonas aeruginosa, PAO1, read-out: Inhibition rate of rhamnolipid, 81.5 μM): 5.8% | inhibition at 162.5 µM ([3]; Pseudomonas aeruginosa, PAO1, read-out: Inhibition rate of rhamnolipid, 162.5 μM): 6.13% | Average survival rate of infected nematodes, Y-31 combined with Tob compared with Y-31 or Tob alone ([4]; Y-31 162.5 μM + Tob 0.25 μg/mL): significantly improved | Improvement of the survival rate of infected nematodes (average) ([4]; after 48 h, agent alone: Y-31 162.5 μM, Tob 0.25 μg/mL): 9.33% | Inhibition rate of pyocyanin ([5]; 162.5 μM): 22.5% | inhibition at 40 µM ([5]; Pseudomonas aeruginosa, PAO1, read-out: Inhibition rate of pyocyanin, 40 μM): 10% | inhibition at 81.5 µM ([5]; Pseudomonas aeruginosa, PAO1, read-out: Inhibition rate of pyocyanin, 81.5 μM): 17.1% | inhibition at 162.5 µM ([5]; Pseudomonas aeruginosa, PAO1, read-out: Inhibition rate of pyocyanin, 162.5 μM): 22.5%
